pIC50: −log10 of the molar value.
Columns and labels:
human orexin-1 receptor = human orexin-1 receptor (Homo sapiens (Human), UniProt O43613); assay: Intracellular calcium measurements (FLIPR), antagonism of orexin-A response; type: cell-based; conditions: CHO cells expressing human orexin-1 receptor, 3 nM orexin-A, geometric mean if determined several times, read-out: IC50 OX1
Method: (§1) Antagonistic activities on both orexin receptors have been measured for each example compound using the following procedure:
(§2) In Vitro Assay: Intracellular Calcium Measurements:
(§3) Chinese hamster ovary (CHO) cells expressing the human orexin-1 receptor and the human orexin-2 receptor, respectively, are grown in culture medium (Ham F-12 with L-Glutamine) containing 300 μg/mL G418, 100 U/mL penicillin, 100 μg/mL streptomycin and 10% heat inactivated fetal calf serum (FCS). The cells are seeded at 20,000 cells/well into 384-well black clear bottom sterile plates (Greiner). The seeded plates are incubated overnight at 37° C. in 5% CO2. Human orexin-A as an agonist is prepared as 1 mM stock solution in MeOH:water (1:1), diluted in HBSS containing 0.1% bovine serum albumin (BSA), NaHCO3: 0.375 g/L and 20 mM HEPES for use in the assay at a final concentration of 3 nM.
(§4) Antagonists are prepared as 10 mM stock solution in DMSO, then diluted in 384-well plates using DMSO followed by a transfer of the dilutions into in HBSS containing 0.1% bovine serum albumin (BSA), NaHCO3: 0.375 g/L and 20 mM HEPES. On the day of the assay, 50 μL of staining buffer (HBSS containing 1% FCS, 20 mM HEPES, NaHCO3: 0.375 g/L, 5 mM probenecid (Sigma) and 3 μM of the fluorescent calcium indicator fluo-4 AM (1 mM stock solution in DMSO, containing 10% pluronic) is added to each well. The 384-well cell-plates are incubated for 50 min at 37° C. in 5% CO2 followed by equilibration at rt for 30 min before measurement.
(§5) Within the Fluorescent Imaging Plate Reader (FLIPR Tetra, Molecular Devices), antagonists are added to the plate in a volume of 10 μL/well, incubated for 120 min and finally 10 μL/well of agonist is added. Fluorescence is measured for each well at 1 second intervals, and the height of each fluorescence peak is compared to the height of the fluorescence peak induced by 3 nM orexin-A with vehicle in place of antagonist. The IC50 value (the concentration of compound needed to inhibit 50% of the agonistic response) is determined and may be normalized using the obtained IC50 value of an on-plate reference compound. Optimized conditions were achieved by adjustment of pipetting speed and cell splitting regime. The calculated IC50 values may fluctuate depending on the daily cellular assay performance. Fluctuations of this kind are known to those skilled in the art. In the case where IC50 values have been determined several times for the same compound, the geometric mean has been given.

human orexin-2 receptor = human orexin-2 receptor (Homo sapiens (Human), UniProt O43614); assay: as above; type: cell-based; conditions: CHO cells expressing human orexin-2 receptor, 3 nM orexin-A, geometric mean if determined several times, read-out: IC50 OX2
Method: as §1, §2, §3, §4, §5

Sequence of human orexin-1 receptor (O43613 whole entry): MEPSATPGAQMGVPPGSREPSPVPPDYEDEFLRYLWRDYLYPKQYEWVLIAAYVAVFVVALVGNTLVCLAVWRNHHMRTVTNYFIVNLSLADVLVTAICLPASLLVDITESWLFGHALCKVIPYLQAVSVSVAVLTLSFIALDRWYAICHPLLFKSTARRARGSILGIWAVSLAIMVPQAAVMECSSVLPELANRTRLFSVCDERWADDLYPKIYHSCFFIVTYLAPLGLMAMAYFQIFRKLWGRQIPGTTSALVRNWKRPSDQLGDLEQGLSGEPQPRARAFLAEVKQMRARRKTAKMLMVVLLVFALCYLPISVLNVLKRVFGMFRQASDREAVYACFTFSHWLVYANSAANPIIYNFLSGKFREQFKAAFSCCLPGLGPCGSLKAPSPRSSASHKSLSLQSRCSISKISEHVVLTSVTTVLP
Sequence of human orexin-2 receptor (O43614 whole entry): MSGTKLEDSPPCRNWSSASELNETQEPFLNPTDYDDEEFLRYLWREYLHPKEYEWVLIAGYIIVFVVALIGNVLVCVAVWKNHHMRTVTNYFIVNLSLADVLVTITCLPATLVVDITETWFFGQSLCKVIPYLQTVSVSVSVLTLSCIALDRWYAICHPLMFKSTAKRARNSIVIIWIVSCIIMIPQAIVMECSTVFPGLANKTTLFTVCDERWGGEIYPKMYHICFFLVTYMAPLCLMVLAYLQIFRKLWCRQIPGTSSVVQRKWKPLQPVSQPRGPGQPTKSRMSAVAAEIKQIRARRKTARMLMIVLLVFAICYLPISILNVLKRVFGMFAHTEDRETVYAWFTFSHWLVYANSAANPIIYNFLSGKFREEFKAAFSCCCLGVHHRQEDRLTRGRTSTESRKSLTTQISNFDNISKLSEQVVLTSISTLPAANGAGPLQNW

SMILES	pIC50 (human orexin-1 receptor)	pIC50 (human orexin-2 receptor)
Cc1c(Cl)cccc1-c1noc([C@@H]2CCN2C(=O)c2ccccc2-n2nccn2)n1 [Example 68, {(S)-2-[3-(3-Chloro-2-methyl-phenyl)-[1,2,4]oxadiazol-5-yl]-azetidin-1-yl}-(2-[1,2,3]triazol-2-yl-phenyl)-methanone]	5.96	7.13
O=C(c1cc(C(F)(F)F)ccc1-n1nccn1)N1CC[C@H]1c1nc(-c2ccccc2OC(F)(F)F)no1 [Example 48, (2-[1,2,3]Triazol-2-yl-5-trifluoromethyl-phenyl)-{(S)-2-[3-(2-trifluoromethoxy-phenyl)-[1,2,4]oxadiazol-5-yl]-azetidin-1-yl}-methanone]	6.02	6.62
Cc1c(Cl)cccc1-c1noc([C@@H]2CCN2C(=O)c2cc(OC(F)(F)F)ccc2-n2nccn2)n1 [Example 65, {(S)-2-[3-(3-Chloro-2-methyl-phenyl)-[1,2,4]oxadiazol-5-yl]-azetidin-1-yl}-(2-[1,2,3]triazol-2-yl-5-trifluoromethoxy-phenyl)-methanone]	5.56	6.17
Cc1ccc(-n2nccn2)c(C(=O)N2CC[C@H]2c2nnc(-c3ccccc3OC(F)(F)F)[nH]2)c1 [Example 125, (5-Methyl-2-[1,2,3]triazol-2-yl-phenyl)-{(S)-2-[5-(2-trifluoromethoxy-phenyl)-4H-[1,2,4]triazol-3-yl]-azetidin-1-yl}-methanone]	5.61	7.25
CCOc1ncccc1-c1noc([C@@H]2CCN2C(=O)c2cc(OC)c(F)cc2-n2nccn2)n1 [Example 33, {(S)-2-[3-(2-Ethoxy-pyridin-3-yl)-[1,2,4]oxadiazol-5-yl]-azetidin-1-yl}-(4-fluoro-5-methoxy-2-[1,2,3]triazol-2-yl-phenyl)-methanone]	5.82	7.57
Cc1nc(C(=O)N2CC[C@H]2c2nc(-c3cccc(Cl)c3C)no2)c(-c2ccccc2F)s1 [Example 55, {(S)-2-[3-(3-Chloro-2-methyl-phenyl)-[1,2,4]oxadiazol-5-yl]-azetidin-1-yl}-[5-(2-fluoro-phenyl)-2-methyl-thiazol-4-yl]-methanone]	5.92	6.66
Cc1ccc(-n2nccn2)c(C(=O)N2CC[C@H]2c2nc(-c3c(C)cccc3F)no2)c1 [Example 8, {(S)-2-[3-(2-Fluoro-6-methyl-phenyl)-[1,2,4]oxadiazol-5-yl]-azetidin-1-yl}-(5-methyl-2-[1,2,3]triazol-2-yl-phenyl)-methanone]	5.46	6.94
Cc1ccc(-n2nccn2)c(C(=O)N2CC[C@H]2c2nc(-c3cccnc3OC3CCC3)no2)c1 [Example 35, {(S)-2-[3-(2-Cyclobutoxy-pyridin-3-yl)-[1,2,4]oxadiazol-5-yl]-azetidin-1-yl}-(5-methyl-2-[1,2,3]triazol-2-yl-phenyl)-methanone]	6.53	7.15
Cc1ccc(-c2ncccn2)c(C(=O)N2CC[C@H]2c2nnc(-c3ccccc3OC(F)(F)F)[nH]2)c1 [Example 135, (5-Methyl-2-pyrimidin-2-yl-phenyl)-{(S)-2-[5-(2-trifluoromethoxy-phenyl)-4H-[1,2,4]triazol-3-yl]-azetidin-1-yl}-methanone]	5.70	6.46
Cc1nc(C(=O)N2CC[C@H]2c2nc(-c3cccc(Cl)c3C)no2)c(-c2ccccc2C)s1 [Example 63, {(S)-2-[3-(3-Chloro-2-methyl-phenyl)-[1,2,4]oxadiazol-5-yl]-azetidin-1-yl}-(2-methyl-5-o-tolyl-thiazol-4-yl)-methanone]	5.95	6.35

Results, then the compound that gave them:

pIC50 (human orexin-1 receptor)	pIC50 (human orexin-2 receptor)	SMILES
6.42	7.92	COc1cc(C(=O)N2CC[C@H]2c2nc(-c3ccccc3OC(F)(F)F)no2)c(-n2nccn2)cc1Cl [Example 75, (4-Chloro-5-methoxy-2-[1,2,3]triazol-2-yl-phenyl)-{(S)-2-[3-(2-trifluoromethoxy-phenyl)-[1,2,4]oxadiazol-5-yl]-azetidin-1-yl}-methanone]
6.53	8.00	CCOc1ncccc1-c1noc([C@@H]2CCN2C(=O)c2cc(C)ccc2-n2nccn2)n1 [Example 30, {(S)-2-[3-(2-Ethoxy-pyridin-3-yl)-[1,2,4]oxadiazol-5-yl]-azetidin-1-yl}-(5-methyl-2-[1,2,3]triazol-2-yl-phenyl)-methanone]
6.48	8.05	Cc1ccc(C(=O)N2CC[C@H]2c2noc(-c3cccc(Cl)c3C)n2)c(-n2nccn2)c1 [Example 106, {(S)-2-[5-(3-Chloro-2-methyl-phenyl)-[1,2,4]oxadiazol-3-yl]-azetidin-1-yl}-(4-methyl-2-[1,2,3]triazol-2-yl-phenyl)-methanone]
6.25	7.41	Cc1ccc(-c2ccccc2)c(C(=O)N2CC[C@H]2c2nnc(-c3ccccc3OC(F)(F)F)[nH]2)c1 [Example 134, (4-Methyl-biphenyl-2-yl)-{(S)-2-[5-(2-trifluoromethoxy-phenyl)-4H-[1,2,4]triazol-3-yl]-azetidin-1-yl}-methanone]
6.15	8.05	Cc1ccc(-n2nccn2)c(C(=O)N2CC[C@H]2c2nc(-c3cccc(F)c3C)no2)c1 [Example 2, {(S)-2-[3-(3-Fluoro-2-methyl-phenyl)-[1,2,4]oxadiazol-5-yl]-azetidin-1-yl}-(5-methyl-2-[1,2,3]triazol-2-yl-phenyl)-methanone]
6.74	8.70	COc1cc(C(=O)N2CC[C@H]2c2noc(-c3cccc(Cl)c3C)n2)c(-n2nccn2)cc1Cl [Example 104, (4-Chloro-5-methoxy-2-[1,2,3]triazol-2-yl-phenyl)-{(S)-2-[5-(3-chloro-2-methyl-phenyl)-[1,2,4]oxadiazol-3-yl]-azetidin-1-yl}-methanone]
6.75	9.22	COc1cc(C(=O)N2CC[C@H]2c2noc(-c3cccc(F)c3OC)n2)c(-n2nccn2)cc1C [Example 88, {(S)-2-[5-(3-Fluoro-2-methoxy-phenyl)-[1,2,4]oxadiazol-3-yl]-azetidin-1-yl}-(5-methoxy-4-methyl-2-[1,2,3]triazol-2-yl-phenyl)-methanone]
6.23	7.04	O=C(c1ccccc1-n1nccn1)N1CC[C@H]1c1nc(-c2ccccc2OC(F)(F)F)no1 [Example 50, (2-[1,2,3]Triazol-2-yl-phenyl)-{(S)-2-[3-(2-trifluoromethoxy-phenyl)-[1,2,4]oxadiazol-5-yl]-azetidin-1-yl}-methanone]
7.01	8.70	Cc1cc(C(=O)N2CC[C@H]2c2nc(-c3cccc(Cl)c3C)no2)c(-n2nccn2)cc1C [Example 70, {(S)-2-[3-(3-Chloro-2-methyl-phenyl)-[1,2,4]oxadiazol-5-yl]-azetidin-1-yl}-(4,5-dimethyl-2-[1,2,3]triazol-2-yl-phenyl)-methanone]
7.39	8.70	Cc1cc(C(=O)N2CC[C@H]2c2noc(-c3cccc(Cl)c3C)n2)c(-n2nccn2)cc1C [Example 102, {(S)-2-[5-(3-Chloro-2-methyl-phenyl)-[1,2,4]oxadiazol-3-yl]-azetidin-1-yl}-(4,5-dimethyl-2-[1,2,3]triazol-2-yl-phenyl)-methanone]
6.89	8.00	O=C(c1ccccc1-c1ccccc1)N1CC[C@H]1c1nc(-c2ccccc2OC(F)(F)F)no1 [Example 54, Biphenyl-2-yl-{(S)-2-[3-(2-trifluoromethoxy-phenyl)-[1,2,4]oxadiazol-5-yl]-azetidin-1-yl}-methanone]
7.28	8.70	CCOc1ncccc1-c1nc([C@@H]2CCN2C(=O)c2cc(C)ccc2-n2nccn2)no1 [Example 90, {(S)-2-[5-(2-Ethoxy-pyridin-3-yl)-[1,2,4]oxadiazol-3-yl]-azetidin-1-yl}-(5-methyl-2-[1,2,3]triazol-2-yl-phenyl)-methanone]
6.33	6.94	CCCOc1ccccc1-c1noc([C@@H]2CCN2C(=O)c2cc(C)ccc2-n2nccn2)n1 [Example 6, (5-Methyl-2-[1,2,3]triazol-2-yl-phenyl)-{(S)-2-[3-(2-propoxy-phenyl)-[1,2,4]oxadiazol-5-yl]-azetidin-1-yl}-methanone]

Source: patent US9403813B2, “Azetidine amide derivatives as orexin receptor antagonists” (ACTELION PHARMACEUTICALS LTD, priority 2013, dated 2016)
